The results in this text go back to patent EP0293130A2, “Dimers of parathyroid hormone antagonists” (Merck & Co., Inc., priority 1987, dated 1988).

The test system of this assay is adenylate cyclase. The conditions noted are these: adenylate cyclase assay. From the text:
In the adenylate cyclase assay of Caporale, L. et al, Peptides: Structure and Function, Proc. 9th Am. Pept. Symp. p.

With ([Tyr³⁴,Cys³⁹]PTH(21-39)NH₂)₂, the “increase in antagonist potency over its monomeric derivative” value (dimer versus its monomeric derivative) is on record as 25 fold. For the same substance, the IC50 (read-out: IC₅₀ (antagonist potency), antagonism of PTH) worked out at 20 µM.
